In PubChem BioAssay AID248 (DTP/NCI, 2004):
Several values for one entry are separate records, joined by “and”; a condition that tells them apart may be missing. Identical values can stand only once. Inconclusive results and toxic doses are left out. Cut-off read from the data, not from the text of the source: active = T/C of 150% or more; inactive = T/C below 125%.

Test system: L1210 leukemia ip in BDF1 mice, survival T/C
Test: NCI In Vivo Anticancer Drug Screen. Data for tumor model L1210 Leukemia (intraperitoneal) in B6D2F1 (BDF1) mice
Conditions: endpoint: mean survival time, higher = longer survival
In short: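 Transplanted-tumor mice were given test agent; controls received vehicle only. Survival readings from the two groups were divided (treated over control).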

[1] = dose: 12.5 mg/kg/injection, schedule: Q04DX003 (ip), vehicle: saline with Tween-80
[2] = dose: 25.0 mg/kg/injection, schedule: Q04DX003 (ip), vehicle: saline with Tween-80
[3] = dose: 100.0 mg/kg/injection, schedule: Q01DX009 (ip), vehicle: saline with Tween-80
[4] = dose: 100.0 mg/kg/injection, schedule: Q04DX003 (ip), vehicle: saline
[5] = dose: 200.0 mg/kg/injection, schedule: Q01DX009 (ip), vehicle: saline with Tween-80
[6] = dose: 200.0 mg/kg/injection, schedule: Q04DX003 (ip), vehicle: saline
[7] = dose: 400.0 mg/kg/injection, schedule: Q04DX003 (ip), vehicle: saline
[8] = dose: 100.0 mg/kg/injection, schedule: Q04DX003 (ip), vehicle: Klucel (hydroxypropylcellulose) (HPC)
[9] = dose: 200.0 mg/kg/injection, schedule: Q04DX003 (ip), vehicle: Klucel (hydroxypropylcellulose) (HPC)
[10] = dose: 400.0 mg/kg/injection, schedule: Q04DX003 (ip), vehicle: Klucel (hydroxypropylcellulose) (HPC)
[11] = dose: 100.0 mg/kg/injection, schedule: Q04DX002 (ip), vehicle: Klucel (hydroxypropylcellulose) (HPC)
[12] = dose: 200.0 mg/kg/injection, schedule: Q04DX002 (ip), vehicle: Klucel (hydroxypropylcellulose) (HPC)
[13] = dose: 400.0 mg/kg/injection, schedule: Q04DX002 (ip), vehicle: Klucel (hydroxypropylcellulose) (HPC)
[14] = dose: 100.0 mg/kg/injection, schedule: Q01DX009 (ip), vehicle: Klucel (hydroxypropylcellulose) (HPC)
[15] = dose: 200.0 mg/kg/injection, schedule: Q01DX009 (ip), vehicle: Klucel (hydroxypropylcellulose) (HPC)
[16] = dose: 400.0 mg/kg/injection, schedule: Q01DX009 (ip), vehicle: Klucel (hydroxypropylcellulose) (HPC)

Measured: T/C

CC(F)(F)C(F)(F)C(=O)CC(=O)C(F)(F)F.CC(F)(F)C(F)(F)C(=O)CC(=O)C(F)(F)F.[Cu]
inactive: dose: 6.25 mg/kg/injection, schedule: Q01DX009 (ip), vehicle: saline with Tween-80 88 % of control | dose: 6.25 mg/kg/injection, schedule: Q04DX003 (ip), vehicle: saline with Tween-80 91 % of control | dose: 12.5 mg/kg/injection, schedule: Q01DX009 (ip), vehicle: saline with Tween-80 101 % of control | [1] 95 % of control | dose: 25.0 mg/kg/injection, schedule: Q01DX009 (ip), vehicle: saline with Tween-80 90 % of control | [2] 95 % of control

CCC(=O)NC1=C(N2CC2)C(=O)C(NC(=O)CC)=C(N2CC2)C1=O
inactive: dose: 0.31 mg/kg/injection, schedule: Q01DX009 (ip), vehicle: Klucel (hydroxypropylcellulose) (HPC) 121 % of control | dose: 1.25 mg/kg/injection, schedule: Q01DX001 (ip), vehicle: saline with Tween-80 115 % of control | dose: 1.25 mg/kg/injection, schedule: Q01DX001 (ip), vehicle: saline 108 % of control | dose: 2.5 mg/kg/injection, schedule: Q01DX001 (ip), vehicle: saline 119 % of control | dose: 5.0 mg/kg/injection, schedule: Q01DX009 (ip), vehicle: Klucel (hydroxypropylcellulose) (HPC) 104 % of control | dose: 5.0 mg/kg/injection, schedule: Q01DX009 (ip), vehicle: saline 100 % of control | dose: 5.0 mg/kg/injection, schedule: Q04DX003 (ip), vehicle: Klucel (hydroxypropylcellulose) (HPC) 102 % of control | dose: 10.0 mg/kg/injection, schedule: Q01DX009 (ip), vehicle: saline 93 % of control | dose: 10.0 mg/kg/injection, schedule: Q04DX003 (ip), vehicle: Klucel (hydroxypropylcellulose) (HPC) 90 % of control
active: dose: 1.25 mg/kg/injection, schedule: Q01DX009 (ip), vehicle: Klucel (hydroxypropylcellulose) (HPC) 162 % of control | dose: 2.5 mg/kg/injection, schedule: Q04DX003 (ip), vehicle: Klucel (hydroxypropylcellulose) (HPC) 175 % of control | dose: 5.0 mg/kg/injection, schedule: Q01DX001 (ip), vehicle: saline with Tween-80 167 % of control | dose: 10.0 mg/kg/injection, schedule: Q01DX001 (ip), vehicle: saline with Tween-80 169 % of control

O=C(OCCO)c1ccccc1
inactive: [3] 97 % of control | [4] 106 % of control | [5] 97 % of control | [6] 95 % of control | dose: 400.0 mg/kg/injection, schedule: Q01DX009 (ip), vehicle: saline with Tween-80 95 % of control | [7] 97 % of control

COC(=O)C1C(=O)C(C(=O)OC)C(C)N(C)C1C (stereo not drawn)
inactive: dose: 9.38 mg/kg/injection, schedule: Q01DX001 (ip), vehicle: other 98 % of control | dose: 18.75 mg/kg/injection, schedule: Q01DX001 (ip), vehicle: other 104 % of control | dose: 37.5 mg/kg/injection, schedule: Q01DX001 (ip), vehicle: other 95 % of control

COc1ccc(C(=O)NC[n+]2ccccc2)cc1
inactive: dose: 25.0 mg/kg/injection, schedule: Q01DX009 (ip), vehicle: saline 93 % of control | dose: 25.0 mg/kg/injection, schedule: Q04DX003 (ip), vehicle: saline 86 % of control | dose: 50.0 mg/kg/injection, schedule: Q01DX009 (ip), vehicle: saline 98 % of control | dose: 50.0 mg/kg/injection, schedule: Q04DX003 (ip), vehicle: saline 93 % of control | [4] 99 % of control

O=[N+]([O-])c1ccc(/C=N/Nc2ccnc3cc(Cl)ccc23)s1
inactive: [4] 96 % of control | [6] 96 % of control | [7] 96 % of control

Clc1ccc(COCc2ccccc2COCc2ccc(Cl)cc2Cl)c(Cl)c1
inactive: [8] 93 % of control | [9] 96 % of control | [10] 88 % of control

O=C(Nc1cccc(Cl)c1)Oc1ccc(Cl)cc1Cc1ccccc1
inactive: dose: 100.0 mg/kg/injection, schedule: Q01DX009 (ip), vehicle: carboxymethylcellulose (CMC) 95 % of control and 91 % of control | [11] 121 % of control | dose: 100.0 mg/kg/injection, schedule: Q04DX002 (ip), vehicle: carboxymethylcellulose (CMC) 100 % of control | dose: 100.0 mg/kg/injection, schedule: Q04DX003 (ip), vehicle: carboxymethylcellulose (CMC) 94 % of control | dose: 200.0 mg/kg/injection, schedule: Q01DX009 (ip), vehicle: carboxymethylcellulose (CMC) 95 % of control and 97 % of control | [12] 102 % of control | dose: 200.0 mg/kg/injection, schedule: Q04DX002 (ip), vehicle: carboxymethylcellulose (CMC) 97 % of control and 107 % of control | dose: 200.0 mg/kg/injection, schedule: Q04DX003 (ip), vehicle: carboxymethylcellulose (CMC) 97 % of control | dose: 400.0 mg/kg/injection, schedule: Q01DX009 (ip), vehicle: carboxymethylcellulose (CMC) 93 % of control and 97 % of control | [13] 97 % of control | dose: 400.0 mg/kg/injection, schedule: Q04DX002 (ip), vehicle: carboxymethylcellulose (CMC) 98 % of control and 100 % of control | dose: 400.0 mg/kg/injection, schedule: Q04DX003 (ip), vehicle: carboxymethylcellulose (CMC) 94 % of control

O=[N+]([O-])c1cccc(S(=O)(=O)N2CCN(S(=O)(=O)c3cccc([N+](=O)[O-])c3)C2)c1
inactive: [14] 95 % of control | [8] 97 % of control | [15] 103 % of control | [9] 93 % of control | [16] 97 % of control | [10] 97 % of control

CC1(C)N=C(N)N=C(N)N1c1cccc(C(=O)c2ccccc2)c1
inactive: dose: 25.0 mg/kg/injection, schedule: Q01DX001 (ip), vehicle: saline with Tween-80 98 % of control | dose: 50.0 mg/kg/injection, schedule: Q01DX001 (ip), vehicle: saline with Tween-80 90 % of control

Nc1nc(/C=C/C=C/c2ccccc2)c(CCCCc2ccccc2)c(=O)[nH]1
inactive: dose: 25.0 mg/kg/injection, schedule: Q01DX001 (ip), vehicle: Klucel (hydroxypropylcellulose) (HPC) 94 % of control | dose: 50.0 mg/kg/injection, schedule: Q01DX001 (ip), vehicle: Klucel (hydroxypropylcellulose) (HPC) 98 % of control | dose: 100.0 mg/kg/injection, schedule: Q01DX001 (ip), vehicle: Klucel (hydroxypropylcellulose) (HPC) 96 % of control

CCCCC=C1CC(C)CC(C)C1 (stereo not drawn)
inactive: dose: 50.0 mg/kg/injection, schedule: Q01DX009 (ip), vehicle: saline with Tween-80 93 % of control | [3] 93 % of control

O=C(Nc1cc(C(F)(F)F)ccc1Cl)OCC(F)(F)F
inactive: [14] 97 % of control and 104 % of control | [11] 108 % of control and 91 % of control | [15] 105 % of control and 112 % of control | [12] 103 % of control and 104 % of control | [16] 94 % of control and 108 % of control | [13] 103 % of control and 107 % of control

CC(=O)CC(=O)Nc1ccc(Cc2ccccc2)cc1
inactive: dose: 100.0 mg/kg/injection, schedule: Q01DX001 (ip), vehicle: saline 93 % of control | dose: 200.0 mg/kg/injection, schedule: Q01DX001 (ip), vehicle: saline 94 % of control | dose: 400.0 mg/kg/injection, schedule: Q01DX001 (ip), vehicle: saline 109 % of control

O=C(O)CSCCSCC(=O)O
inactive: dose: 12.5 mg/kg/injection, schedule: Q04DX002 (ip), vehicle: carboxymethylcellulose (CMC) 95 % of control | dose: 25.0 mg/kg/injection, schedule: Q04DX002 (ip), vehicle: carboxymethylcellulose (CMC) 97 % of control | dose: 50.0 mg/kg/injection, schedule: Q04DX002 (ip), vehicle: carboxymethylcellulose (CMC) 98 % of control | [3] 104 % of control | [5] 94 % of control and 91 % of control

O=C(NCCCl)Nc1cccc(C(F)(F)F)c1
inactive: dose: 100.0 mg/kg/injection, schedule: Q04DX003 (ip), vehicle: saline with Tween-80 104 % of control | dose: 200.0 mg/kg/injection, schedule: Q04DX003 (ip), vehicle: saline with Tween-80 107 % of control | dose: 400.0 mg/kg/injection, schedule: Q04DX003 (ip), vehicle: saline with Tween-80 113 % of control

COP(S)(=N/N=C/c1ccccn1)OC
inactive: [1] 104 % of control | [2] 95 % of control
